# Assays:
# Test in all cases: relative viability (nuclei count vs DMSO), 5 days (fraction); higher = more cells survive
# Decitabine + Alpelisib = compound: Nc1ncn([C@H]2C[C@H](O)[C@@H](CO)O2)c(=O)n1 [Decitabine] + Cc1nc(NC(=O)N2CCC[C@H]2C(N)=O)sc1-c1ccnc(C(C)(C)C(F)(F)F)c1 [Alpelisib] (partner 2 µM)
# Outline: (§1)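 Each reported value is a median over duplicate plates. It expresses relative viability: treated-well nuclei count divided by vehicle-well nuclei count. Lung cancer cell lines in 1536-well plates were dosed by pin tool a day after seeding, alone with one drug or with a fixed anchor-drug dose plus five library-drug doses (not always all listed) in √10 steps, and nuclei were counted after 5 days.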
# Cediranib + Lapatinib = compound: COc1cc2c(Oc3ccc4[nH]c(C)cc4c3F)ncnc2cc1OCCCN1CCCC1 [Cediranib] + CS(=O)(=O)CCNCc1ccc(-c2ccc3ncnc(Nc4ccc(OCc5cccc(F)c5)c(Cl)c4)c3c2)o1 [Lapatinib] (partner 2 µM)
# Outline: as §1
# [1] = compound: O=C(C[C@H]1NCCC[C@@H]1O)Cn1cnc2cc(Br)c(Cl)cc2c1=O (racemic) [Halofuginone] + C[C@@H](Oc1cc(-c2cnn(C3CCNCC3)c2)cnc1N)c1c(Cl)ccc(F)c1Cl [Crizotinib] (partner 1 µM)
# Outline: as §1
# [2] = compound: O=C(C[C@H]1NCCC[C@@H]1O)Cn1cnc2cc(Br)c(Cl)cc2c1=O (racemic) [Halofuginone] + Cc1cc(Nc2cc(N3CCN(C)CC3)nc(Sc3ccc(NC(=O)C4CC4)cc3)n2)n[nH]1 [Tozasertib] (partner 0.1 µM)
# Outline: as §1
Cell Line,relative viability (Decitabine + Alpelisib; first compound 0.04 µM),relative viability (Decitabine + Alpelisib; first compound 0.1265 µM),relative viability (Decitabine + Alpelisib; first compound 0.4 µM),relative viability (Decitabine + Alpelisib; first compound 1.265 µM),relative viability (Decitabine + Alpelisib; first compound 4 µM),relative viability (Cediranib + Lapatinib; first compound 0.04 µM),relative viability (Cediranib + Lapatinib; first compound 0.1265 µM),relative viability (Cediranib + Lapatinib; first compound 0.4 µM),relative viability (Cediranib + Lapatinib; first compound 1.265 µM),relative viability (Cediranib + Lapatinib; first compound 4 µM),relative viability ([1]; first compound 0.001 µM),relative viability ([1]; first compound 0.003162 µM),relative viability ([1]; first compound 0.01 µM),relative viability ([1]; first compound 0.03162 µM),relative viability ([1]; first compound 0.1 µM),relative viability ([2]; first compound 0.001 µM),relative viability ([2]; first compound 0.003162 µM),relative viability ([2]; first compound 0.01 µM),relative viability ([2]; first compound 0.03162 µM),relative viability ([2]; first compound 0.1 µM)
201T,1,1.08,1.12,0.949,0.923,1.08,0.897,1.02,1.01,0.996,0.966,1.02,1.04,1.05,0.964,1,0.813,0.995,0.779,0.548
A549,0.647,0.56,0.494,0.214,0.165,0.927,1.01,0.949,0.994,0.992,0.824,0.75,0.611,0.338,0.0443,–,–,–,–,–
A-427,0.695,0.462,0.303,0.265,0.232,1.03,–,0.938,0.897,0.981,0.941,0.911,0.795,0.807,0.764,0.186,0.225,0.224,0.198,0.192
ABC-1,0.833,0.816,0.786,0.731,0.753,1.24,1.39,1.14,1.06,1.24,1.09,1.08,0.954,1.26,1.15,0.141,0.142,0.162,0.189,0.158
BEN,0.943,0.908,0.651,0.564,0.426,0.945,–,0.665,0.598,0.681,0.979,0.784,1.07,0.772,0.479,0.535,0.528,0.456,0.511,0.482
CAL-12T,0.686,0.997,0.793,0.514,0.34,0.681,–,0.614,0.676,0.877,0.733,0.835,0.527,0.834,0.237,0.354,0.279,0.352,0.305,0.262
COR-L23,0.412,0.346,0.311,0.225,0.213,1.1,0.899,0.895,0.892,1.32,0.822,0.78,0.624,0.62,0.0779,0.249,0.218,0.198,0.153,0.106
COR-L 105,0.763,0.873,0.717,0.427,0.306,–,0.304,0.361,0.339,0.337,1.01,0.853,0.722,0.718,0.515,0.337,0.288,0.385,0.329,0.346
Calu-6,0.736,0.681,0.547,0.322,0.279,1.17,1.08,0.874,1.03,1.14,0.882,0.814,0.82,0.407,0.151,–,–,–,–,–
ChaGo-K-1,–,–,–,–,–,–,–,–,–,–,1.18,1.2,1.03,1.11,0.975,0.256,0.205,0.261,0.222,0.208
EBC-1,0.516,0.453,0.421,0.305,0.271,0.252,0.206,0.213,0.226,0.202,0.186,0.202,0.188,0.223,0.2,–,–,–,–,–
EKVX,0.635,0.565,0.522,0.393,0.318,0.19,0.23,0.196,0.227,0.203,0.921,0.9,1.04,0.891,0.635,0.432,0.377,0.352,0.354,0.349
EMC-BAC-2,0.718,0.699,0.481,0.442,0.41,0.925,0.804,0.88,0.816,0.868,0.856,0.805,0.778,0.769,0.32,0.329,0.248,0.276,0.242,0.162
EPLC-272H,0.723,0.688,–,0.606,0.525,0.834,–,0.862,0.77,0.671,0.871,0.928,0.879,0.807,0.774,0.241,0.333,0.318,0.279,0.247
H3255,0.222,0.579,0.358,0.428,0.436,0.272,0.228,0.271,0.246,0.254,0.94,0.948,0.875,0.952,0.791,0.709,0.524,0.723,0.67,0.618
HARA,0.73,0.749,0.474,0.365,0.249,0.762,0.994,0.7,0.708,0.703,1.17,1.05,0.985,1.05,0.943,0.116,0.118,0.105,0.105,0.0853
HCC-15,0.799,0.773,0.441,0.438,0.302,0.898,–,0.806,1.01,0.897,0.827,0.887,0.737,0.826,0.657,0.47,0.461,0.394,0.43,0.239

# Source: the supplement of paper PMC10307832
